Measured values reported in publication PMC12655351, “Synthesis and Anticancer Activity Evaluation of New 5-((5-Nitrofuran-2-yl)allylidene)-2-thioxo-4-thiazolidinones” (Pharmaceuticals, 2025).

Columns and labels:
[1] = test system: reactive oxygen species in MCF-7 cells; test: H2DCFDA and DAPI double staining; type: cell-based, human; settings: MCF-7, 1 and 5 μM, one hour
Experimental: (§1) The double staining method was applied to analyze novel compounds’ effects on the generation of reactive oxygen species. The first dye, H2DCFDA, after conversion to DCF, serves as an indicator of oxidative stress (green fluorescence), while the second one, known as DAPI, was applied to showcase nuclear genetic material of MCF-7 and MDA-MB-231 breast cancer cells (blue fluorescence). The concentrations of compounds were 1 and 5 μM for the MCF-7 cell line and 5 and 10 μM for the MDA-MB-231 cell line. The incubation time after treatment was one hour in both cell lines.
(§2) The influences of 2b, 12b, 14b, and doxorubicin (1 and 5 µM and 5 and 10 µM for MCF-7 and MDA-MB-231 cell lines, respectively) on the generation of reactive oxygen species (ROS) were analyzed. Cells were seeded in 6-well culture plates at 1 × 10^5 cells per well in 1 mL of medium and then treated with compounds for 1 h and then washed with PBS. Double staining was conducted with 20 µM 2′,7′-dichlorodihydrofluorescein diacetate (H2DCFDA) reagent (Thermo Fisher Scientific, Eugene, OR, USA), which is colorless, and is cleaved by intracellular esterases and oxidized to the highly fluorescent 2′,7′-dichlorofluorescein (DCF), and 10 µg/mL of the fluorescent dye 4′,6-diamidino-2-phenylindole (DAPI) (Sigma-Aldrich, St. Louis, MO, USA), which visualizes the nuclear DNA of cells. A Nikon ECLIPSE Ti fluorescence microscope (Nikon, Tokyo, Japan) was used to obtain results which were analyzed using ImageJ software 1.54k (Bethesda, MD, USA). The fluorescence intensity of the DCF reagent was evaluated relative to the control. The number of analyzed cells was above 100.

[2] = test system: reactive oxygen species in MDA-MB-231 cells; test: H2DCFDA and DAPI double staining; type: cell-based, human; settings: MDA-MB-231, 5 and 10 μM, one hour
Experimental: as §1, §2

U251 = settings: human, 48 h
MDA-MB-468 = settings: human, 48 h

Structure (SMILES): O=C(O)CCCCCN1C(=O)/C(=C/C=C/c2ccc([N+](=O)[O-])o2)SC1=S [14b, 6-((Z)-5-((E)-3-(5-nitrofuran-2-yl)allylidene)-4-oxo-2-thioxothiazolidin-3-yl)hexanoic acid]
- generation of reactive oxygen species [1]: highest generation of ROS
- generation of reactive oxygen species [2]: highest generation of ROS
- CC50 (U251): 5.02 µM
- CC50 (MDA-MB-468): 4.29 µM
